Measured values reported in US20240246964A1 (Arbutus Biopharma Corporation, priority 2021, published 2024).
Each block holds one molecule with its values, some of them ahead of it.

Assays:
human PD-L1 = human PD-L1 (Homo sapiens (Human), UniProt Q9NZQ7); experiment: T cell activation luciferase reporter cell culture system (T Cell Activation Assay); format: cell-based; details: luciferase reporter assay; PD-L1 aAPC/CHO-K1 cells with PD-1 effector Jurkat T cells
[1] = biological target: PD-L1 His protein / PD-1 Fc protein (Homo sapiens (Human), UniProt Q9NZQ7); experiment: HTRF Assay (PD-1/PD-L1 interaction); format: binding; details: PD-L1 His 6 nM, PD-1 Fc 6 nM
Chain of PD-L1 His protein / PD-1 Fc protein (Q9NZQ7 19-238): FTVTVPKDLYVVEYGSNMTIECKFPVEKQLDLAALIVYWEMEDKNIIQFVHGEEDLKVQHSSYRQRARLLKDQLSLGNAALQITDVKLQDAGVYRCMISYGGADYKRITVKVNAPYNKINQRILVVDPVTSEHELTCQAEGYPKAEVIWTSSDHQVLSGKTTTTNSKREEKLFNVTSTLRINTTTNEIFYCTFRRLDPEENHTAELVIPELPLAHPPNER

Chain of human PD-L1 (Q9NZQ7 19-290): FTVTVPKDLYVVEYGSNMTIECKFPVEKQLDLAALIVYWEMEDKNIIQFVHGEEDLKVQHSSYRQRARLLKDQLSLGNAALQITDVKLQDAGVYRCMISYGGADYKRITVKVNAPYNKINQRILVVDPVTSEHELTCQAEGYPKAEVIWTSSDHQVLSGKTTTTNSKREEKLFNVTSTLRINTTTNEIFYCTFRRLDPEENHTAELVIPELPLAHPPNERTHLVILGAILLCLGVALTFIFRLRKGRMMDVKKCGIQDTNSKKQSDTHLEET

Structure (SMILES): COc1nc(-c2cccc(-c3ccnc(-c4ccc(CN5CC6(C5)CN(C(C)=O)C6)c(OC(F)F)c4)c3Cl)c2Cl)ccc1CN1CC2(CNC(=O)C2)C1 [Example 662, 2-((6-(3-(2-(4-((6-Acetyl-2,6-diazaspiro[3.3]heptan-2-yl)methyl)-3-(difluoromethoxy)phenyl)-3-chloropyridin-4-yl)-2-chlorophenyl)-2-methoxypyridin-3-yl)methyl)-2,6-diazaspiro[3.4]octan-7-one]
EC50 (human PD-L1): 18.5 nM | IC50 [1]: 0.74 nM

Structure (SMILES): COc1nc(-c2cccc(-c3ccnc(-c4ccc(CNC5CCN(C(C)=O)CC5)c(OC(F)F)c4)c3Cl)c2Cl)ccc1CN1CC2(CNC(=O)C2)C1 [Example 665, 2-((6-(3-(2-(4-(((1-Acetylpiperidin-4-yl)amino)methyl)-3-(difluoromethoxy)phenyl)-3-chloropyridin-4-yl)-2-chlorophenyl)-2-methoxypyridin-3-yl)methyl)-2,6-diazaspiro[3.4]octan-7-one]
EC50 (human PD-L1): 46.3 nM | IC50 [1]: 0.6 nM

Structure (SMILES): COc1cc(-c2nccc(-c3nccc(-c4ccc(CN5CC6(CNC(=O)C6)C5)c(OC)n4)c3Cl)c2Cl)ccc1CN1CC2(CNC(=O)C2)C1 [Example 669, 2-(4-(3′,3″-Dichloro-6-methoxy-5-((7-oxo-2,6-diazaspiro[3.4]octan-2-yl)methyl)-[2,4′:2′,4″-terpyridin]-2″-yl)-2-methoxybenzyl)-2,6-diazaspiro[3.4]octan-7-one]
EC50 (human PD-L1): 296 nM | IC50 [1]: 0.34 nM

EC50 (human PD-L1): 26.9 nM | IC50 [1]: 0.26 nM
Structure (SMILES): COc1cc(-c2nccc(-c3cccc(NC(=O)c4ccc(CNC[C@@H]5CCC(=O)N5)cn4)c3Cl)c2Cl)ccc1CNC[C@@H]1CCC(=O)N1 [Example 675, N-(2-Chloro-3-(3-chloro-2-(3-methoxy-4-(((((S)-5-oxopyrrolidin-2-yl)methyl)amino)methyl)phenyl)pyridin-4-yl)phenyl)-5-(((((S)-5-oxopyrrolidin-2-yl)methyl)amino)methyl)picolinamide]

Structure (SMILES): COc1cc(-c2nccc(-c3cccc(NC(=O)c4ccc(CNCCO)cn4)c3Cl)c2Cl)ccc1CNCCO [Example 676, N-(2-Chloro-3-(3-chloro-2-(4-(((2-hydroxyethyl)amino)methyl)-3-methoxyphenyl)pyridin-4-yl)phenyl)-5-(((2-hydroxyethyl)amino)methyl)picolinamide]
EC50 (human PD-L1): 37.3 nM | IC50 [1]: 0.1 nM

Structure (SMILES): COc1cc(-c2nccc(-c3cccc(NC(=O)c4ccc(CN5CC6(C5)CN(C(C)=O)C6)cn4)c3Cl)c2Cl)ccc1CN1CC2(C1)CN(C(C)=O)C2 [Example 677, 5-((6-Acetyl-2,6-diazaspiro[3.3]heptan-2-yl)methyl)-N-(3-(2-(4-((6-acetyl-2,6-diazaspiro[3.3]heptan-2-yl)methyl)-3-methoxyphenyl)-3-chloropyridin-4-yl)-2-chlorophenyl)picolinamide]
EC50 (human PD-L1): 1210 nM | IC50 [1]: 0.04 nM

Structure (SMILES): COc1cc(-c2nccc(-c3cccc(NC(=O)c4ccc(CNC[C@H](C)O)cn4)c3Cl)c2Cl)ccc1CNC[C@H](C)O [Example 678, N-(2-Chloro-3-(3-chloro-2-(4-((((S)-2-hydroxypropyl)amino)methyl)-3-methoxyphenyl)pyridin-4-yl)phenyl)-5-((((S)-2-hydroxypropyl)amino)methyl)picolinamide]
EC50 (human PD-L1): 37 nM | IC50 [1]: 0.02 nM

Structure (SMILES): COCCC(=O)N1CC2(CN(Cc3ccc(-c4nccc(-c5cccc(-c6ccc(CN7CC8(C7)CN(C(=O)CCOC)C8)c(OC)n6)c5Cl)c4Cl)cc3OC)C2)C1 [Example 679, 1-(6-((6-(2-Chloro-3-(3-chloro-2-(3-methoxy-4-((6-(3-methoxypropanoyl)-2,6-diazaspiro[3.3]heptan-2-yl)methyl)phenyl)pyridin-4-yl)phenyl)-2-methoxypyridin-3-yl)methyl)-2,6-diazaspiro[3.3]heptan-2-yl)-3-methoxypropan-1-one]
EC50 (human PD-L1): 30.5 nM | IC50 [1]: 0.16 nM

Structure (SMILES): COc1nc(-c2cccc(-c3ccnc(-c4ccc(CN5CC6(CNC(=O)C6)C5)c(OC(F)F)c4)c3Cl)c2Cl)ccc1CNC1CCOCC1 [Example 683, 2-(4-(3-Chloro-4-(2-chloro-3-(6-methoxy-5-(((tetrahydro-2H-pyran-4-yl)amino)methyl)pyridin-2-yl)phenyl)pyridin-2-yl)-2-(difluoromethoxy)benzyl)-2,6-diazaspiro[3.4]octan-7-one]
EC50 (human PD-L1): 25.9 nM | IC50 [1]: 0.29 nM

Structure (SMILES): COc1nc(-c2cccc(-c3ccnc(-c4ccc(CN5CC6(CNC(=O)C6)C5)c(OC(F)F)c4)c3Cl)c2Cl)ccc1CNC1CCN(C(C)=O)CC1 [Example 684, 2-(4-(4-(3-(5-(((1-Acetylpiperidin-4-yl)amino)methyl)-6-methoxypyridin-2-yl)-2-chlorophenyl)-3-chloropyridin-2-yl)-2-(difluoromethoxy)benzyl)-2,6-diazaspiro[3.4]octan-7-one]
EC50 (human PD-L1): 34.9 nM | IC50 [1]: 1.8 nM

Structure (SMILES): COc1nc(-c2cccc(-c3ccnc(-c4ccc(CNC5CCOCC5)c(OC(F)F)c4)c3Cl)c2Cl)ccc1CN1CC2(CNC(=O)C2)C1 [Example 685, 2-((6-(2-Chloro-3-(3-chloro-2-(3-(difluoromethoxy)-4-(((tetrahydro-2H-pyran-4-yl)amino)methyl)phenyl)pyridin-4-yl)phenyl)-2-methoxypyridin-3-yl)methyl)-2,6-diazaspiro[3.4]octan-7-one]
EC50 (human PD-L1): 51.7 nM | IC50 [1]: 4.22 nM

Structure (SMILES): COc1nc(-c2ccnc(-c3cccc4c3CC[C@@H]4Oc3nc(OC)c(CNC[C@@H]4CCC(=O)N4)cc3C(F)(F)F)c2Cl)ccc1CNC1CCOCC1 [Example 686, (S)-5-((((6-(((S)-4-(3′-chloro-6-methoxy-5-(((tetrahydro-2H-pyran-4-yl)amino)methyl)-[2,4′-bipyridin]-2′-yl)-2,3-dihydro-1H-inden-1-yl)oxy)-2-methoxy-5-(trifluoromethyl)pyridin-3-yl)methyl)amino)methyl)pyrrolidin-2-one]
EC50 (human PD-L1): 11.1 nM | IC50 [1]: 14.8 nM

Structure (SMILES): COCC(=O)N1CC2(CN(Cc3ccc(-c4cccc(-c5ccnc(-c6ccc(CN7CC8(CNC(=O)C8)C7)c(OC)c6)c5Cl)c4Cl)nc3OC)C2)C1 [Example 687, 2-(4-(3-Chloro-4-(2-chloro-3-(6-methoxy-5-((6-(2-methoxyacetyl)-2,6-diazaspiro[3.3]heptan-2-yl)methyl)pyridin-2-yl)phenyl)pyridin-2-yl)-2-methoxybenzyl)-2,6-diazaspiro[3.4]octan-7-one]
EC50 (human PD-L1): 26.3 nM | IC50 [1]: 0.08 nM

Structure (SMILES): COc1nc(-c2cccc(-c3ccnc(-c4ccc(CN5CC6(CNC(=O)C6)C5)c(OC(F)F)c4)c3Cl)c2Cl)ccc1CN1CC2(C1)CN(C(C)=O)C2 [Example 688, 2-(4-(4-(3-(5-((6-Acetyl-2,6-diazaspiro[3.3]heptan-2-yl)methyl)-6-methoxypyridin-2-yl)-2-chlorophenyl)-3-chloropyridin-2-yl)-2-(difluoromethoxy)benzyl)-2,6-diazaspiro[3.4]octan-7-one]
EC50 (human PD-L1): 17 nM | IC50 [1]: 1.46 nM

Structure (SMILES): COc1nc(-c2cccc(-c3ccnc(-c4ccc(CNC5CCOCC5)c(OC(F)F)c4)c3Cl)c2Cl)ccc1CN1CC2(C1)CN(C(C)=O)C2 [Example 689, 1-(6-((6-(2-Chloro-3-(3-chloro-2-(3-(difluoromethoxy)-4-(((tetrahydro-2H-pyran-4-yl)amino)methyl)phenyl)pyridin-4-yl)phenyl)-2-methoxypyridin-3-yl)methyl)-2,6-diazaspiro[3.3]heptan-2-yl)ethan-1-one]
EC50 (human PD-L1): 37.4 nM | IC50 [1]: 3.33 nM

Structure (SMILES): COc1cc(-c2nccc(-c3cccc(-c4ccc(CN5CCC(O)CC5)c(OC)n4)c3Cl)c2Cl)ccc1CN1CC2(CCN(C(C)=O)C2)C1 [Example 693, 1-(2-(4-(3-Chloro-4-(2-chloro-3-(5-((4-hydroxypiperidin-1-yl)methyl)-6-methoxypyridin-2-yl)phenyl)pyridin-2-yl)-2-methoxybenzyl)-2,6-diazaspiro[3.4]octan-6-yl)ethan-1-one]
EC50 (human PD-L1): 26.1 nM | IC50 [1]: 0.71 nM

Structure (SMILES): COc1nc(-c2cccc(-c3ccnc(-c4cc5c(OC)nc(CN6CC(C)(O)C6)nn5c4)c3Cl)c2Cl)ccc1CNC[C@@H]1CCC(=O)N1 [Example 697, (S)-5-((((6-(2-Chloro-3-(3-chloro-2-(2-((3-hydroxy-3-methylazetidin-1-yl)methyl)-4-methoxypyrrolo[2,1-f][1,2,4]triazin-6-yl)pyridin-4-yl)phenyl)-2-methoxypyridin-3-yl)methyl)amino)methyl)pyrrolidin-2-one]
EC50 (human PD-L1): 120 nM | IC50 [1]: 6.26 nM

Structure (SMILES): COc1nc(-c2cccc(-c3ccnc(-c4cc(OC)c5nc(CN6CC7(COC7)C6)nn5c4)c3Cl)c2Cl)ccc1CNC1CCN(C(C)=O)CC1 [Example 698, 1-(4-(((6-(3-(2-(2-((2-Oxa-6-azaspiro[3.3]heptan-6-yl)methyl)-8-methoxy-[1,2,4]triazolo[1,5-a]pyridin-6-yl)-3-chloropyridin-4-yl)-2-chlorophenyl)-2-methoxypyridin-3-yl)methyl)amino)piperidin-1-yl)ethan-1-one]
EC50 (human PD-L1): 261 nM | IC50 [1]: 0.14 nM

Structure (SMILES): COc1cc(-c2nccc(-c3cccc(NC(=O)c4ccc(CNCCO)cn4)c3C)c2Cl)ccc1CNC1CCOCC1 [Example 703, N-(3-(3-Chloro-2-(3-methoxy-4-(((tetrahydro-2H-pyran-4-yl)amino)methyl)phenyl)pyridin-4-yl)-2-methylphenyl)-5-(((2-hydroxyethyl)amino)methyl)picolinamide]
EC50 (human PD-L1): 146 nM | IC50 [1]: 0.14 nM

Structure (SMILES): COc1cc(-c2nccc(-c3cccc(NC(=O)c4ccc(CNC5CC6(C5)CN(C(C)=O)C6)cn4)c3Cl)c2Cl)ccc1CNC1CC2(C1)CN(C(C)=O)C2 (stereo not shown) [Example 706, 5-(((2-Acetyl-2-azaspiro[3.3]heptan-6-yl)amino)methyl)-N-(3-(2-(4-(((2-acetyl-2-azaspiro[3.3]heptan-6-yl)amino)methyl)-3-methoxyphenyl)-3-chloropyridin-4-yl)-2-chlorophenyl)picolinamide]
EC50 (human PD-L1): 72.6 nM | IC50 [1]: 0.2 nM
